One test deals with SMARCA2 (Homo sapiens, UniProt P51531). The test can be described thus: MSD SMARCA2 degradation in A549 cell line. The test is classed as cell-based. Also on record: endogenous in cells; host or cells: A549. The conditions noted are these: A549 cells, 24 hours; for DC50: read-out: SMARCA2 MSD A549 degradation 24h: Average external-Abs DC50. The method, then: Example 9. MSD SMARCA2 Degradation in A549 Cell Line
Cells were seeded into 96-well plates (A549 cells: 2×10^4 cells/well/100 ul media) abd incubated overnight. The next day, 200 nl compound were added into the intermediate plate with Echo (Labcyte 550) from source plate containing a 3-fold serial dilution from top concentration of 1 mM. The culture medium was changed with 80 ul of fresh medium and 80 ul of 2× compound solution was added into the well to make a final concentration of 1000 nM, 333.3 nM, 111.1 nM, 37.04 nM, 12.35 nM, 4.115 nM, 1.372 nM, 0.457 nM, 0.152 nM and 0 nM (DMSO). The wells were mixed and then incubated for 24 hours. The media was aspirated from the cultures and 60 ul pre-chilled PIPA lysis buffer (Boston BioProducts BP-115D) with protease/phosphatase inhibitor (Roche 05892791001/Roche 04906837001) was added into the well to lyze the cells for 20 minutes at 4° C. The MSD plate (L15XA) was coated with 40 ul cell lysate and incubated at 4° C. overnight. The next day, the plate was washed three times with TBST (CST #9997S), 150 ul/well. The MSD plates was blocked with 150 ul blocking buffer per well and shaked for 1 hr at RT, 600 rpm. The blocking buffer was 3% Blocker A (MSD, R93BA-4) in TBST. The MSD plate was washed three times with 150 ul/well of TBST and 25 ul/well of detection antibody (Rabbit anti-SMARCA2/BRM antibody, 100 μg/ml, ab223735) was added at final concentration of 1 ug/ml diluted in 1% Blocking buffer and shaken for 1 hour at RT, 600 rpm. The MSD plate was washed three times with 150 ul/well of TBST and 25 ul/well of SULFO-TAG anti-rabbit antibody (MSD, R32AB-1) was added at final concentration of 1 ug/ml diluted in 1% Blocking buffer and shaken for 1 hour at RT, 600 rpm. The MSD plate was washed three times with 150 ul/well of TBST and 150 ul/well of 2×MSD reading buffer diluted from 4× (MSD, R92TC-2) with water was added. Lastly, the MSD instrument was read.

In another test the target is T1, SMARCA4 (Homo sapiens, UniProt P51532).
T1 construct: endogenous in cells; host or cells: MV4-11
T1 sequence (P51532 whole entry): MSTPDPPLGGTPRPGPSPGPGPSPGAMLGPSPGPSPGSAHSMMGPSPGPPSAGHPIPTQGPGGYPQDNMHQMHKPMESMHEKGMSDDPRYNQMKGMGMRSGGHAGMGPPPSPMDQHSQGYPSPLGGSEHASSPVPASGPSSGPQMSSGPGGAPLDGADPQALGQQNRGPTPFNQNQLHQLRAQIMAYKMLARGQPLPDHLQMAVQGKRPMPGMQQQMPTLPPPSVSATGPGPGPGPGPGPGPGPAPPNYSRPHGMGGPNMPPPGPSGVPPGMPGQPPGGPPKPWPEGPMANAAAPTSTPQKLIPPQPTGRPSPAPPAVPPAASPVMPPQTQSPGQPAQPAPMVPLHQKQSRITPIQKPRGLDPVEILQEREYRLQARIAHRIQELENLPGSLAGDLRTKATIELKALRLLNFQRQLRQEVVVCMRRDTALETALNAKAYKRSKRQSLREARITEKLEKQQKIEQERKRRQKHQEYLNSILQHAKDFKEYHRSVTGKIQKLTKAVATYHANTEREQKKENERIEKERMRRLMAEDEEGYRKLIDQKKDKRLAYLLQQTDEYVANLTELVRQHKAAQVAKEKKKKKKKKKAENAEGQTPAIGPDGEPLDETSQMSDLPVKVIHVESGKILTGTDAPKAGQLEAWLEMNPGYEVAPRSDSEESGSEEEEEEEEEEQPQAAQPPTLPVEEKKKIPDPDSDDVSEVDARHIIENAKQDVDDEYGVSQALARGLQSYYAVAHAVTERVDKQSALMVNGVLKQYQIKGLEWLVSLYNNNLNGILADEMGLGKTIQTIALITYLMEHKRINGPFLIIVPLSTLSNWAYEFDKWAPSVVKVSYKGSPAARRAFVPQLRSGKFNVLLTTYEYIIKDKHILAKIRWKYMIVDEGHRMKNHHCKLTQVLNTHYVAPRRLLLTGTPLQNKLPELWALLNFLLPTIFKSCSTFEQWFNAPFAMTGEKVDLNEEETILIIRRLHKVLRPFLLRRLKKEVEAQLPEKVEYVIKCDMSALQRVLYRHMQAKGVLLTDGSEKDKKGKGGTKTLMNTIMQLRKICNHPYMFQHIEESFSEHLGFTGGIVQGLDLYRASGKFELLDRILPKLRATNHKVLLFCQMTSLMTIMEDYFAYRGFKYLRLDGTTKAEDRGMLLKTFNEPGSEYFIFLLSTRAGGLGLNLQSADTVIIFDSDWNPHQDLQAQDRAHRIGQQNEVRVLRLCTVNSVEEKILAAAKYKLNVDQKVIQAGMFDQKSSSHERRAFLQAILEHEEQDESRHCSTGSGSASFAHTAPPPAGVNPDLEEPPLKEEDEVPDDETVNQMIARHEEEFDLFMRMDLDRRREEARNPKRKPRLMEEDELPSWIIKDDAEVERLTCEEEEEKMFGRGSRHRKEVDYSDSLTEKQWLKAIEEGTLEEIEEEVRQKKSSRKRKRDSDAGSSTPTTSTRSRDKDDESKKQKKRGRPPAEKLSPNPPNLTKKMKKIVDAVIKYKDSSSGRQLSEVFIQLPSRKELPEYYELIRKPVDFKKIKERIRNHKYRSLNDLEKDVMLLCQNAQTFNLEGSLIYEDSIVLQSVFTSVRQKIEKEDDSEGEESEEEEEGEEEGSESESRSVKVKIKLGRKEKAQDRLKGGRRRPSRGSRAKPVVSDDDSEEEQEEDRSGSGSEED
The test can be described thus: SMARCA4 Western blot MV4-11 degradation. The conditions noted are these: MV4-11 cells, 24 hours; for Dmax: read-out: SMARCA4 WB MV411 degradation 24h: Average Dmax %; for DC50: read-out: SMARCA4 WB MV411 degradation 24h: Average external-Abs DC50. In kind it is cell-based. The method, then: Example 10. SMARCA2 and SMARCA 4 Western Blot MV4-11 Degradation
Cells were seeded into 6-well plates (MV4-11: 4×10^6 cells/well/1 ml) and 1 ml of 2× compound solution was added into the well to make the final concentration and the plates were mixed well and incubated for 24 hours (No cytotoxicity was observed). The cell were collected with media and spun at 3000 rpm for 5 minutes. The supernatant was aspirated and the well and the cells were washed with cold PBS once and combined for centrifugation again; the supernatant aspirated again. 200 ul pre-chilled RIPAlysis buffer (Boston BioProducts BP-115D) with protease/phosphatase inhibitor (Roche 05892791001/Roche 04906837001) was directly added into the tube to lyze the cells for 20 minutes on ice. The cell lysate were collected into EP tubes and spun at 13000 rpm for 20 minutes and 72 ul supernatant was transferred to a fresh EP tube containing 18 ul of 5× loading buffer (Beyotime Bio P0015) to make the loading samples. The samples were heated to 100° C. for 10 minutes and cooled to RT and microcentrifuged. 20 ul of samples were loaded onto SDS-PAGE gel (Novex, WG1402BOX) and the gel was run at 80 V for 20 minutes and 120 V for 1.5 hours. The samples were electrotransfer to a NC membrane using wet-transfer method with 250 mA for 2.5 hours. The membrane was blocked with LICOR blocking buffer (LI-COR, 927-50000) for 1 hour. The membrane was washed three times with TBST (CST #9997S), 5 minutes each. Incubation was performed with primary antibody prepared in blocking buffer with 0.1% Tween-20 (Solarbio, P8220) at 4° C. overnight (Anti-SMARCA2/BRM antibody (ab15597) 1:500; Anti-BRG1 antibody [EPR3912] (ab108318) 1:1000; Rabbit anti-Baf180 antibody [EPR15860] (Abcam,ab196022) 1:1000; mouse anti-beta-Actin (8H10D10) (CST #3700) 1:10000). The membrane was washed three times with TBST, 5 minutes each. Incubation with secondary antibody was performed for 1 hour at RT (anti-rabbit IgG (Licor, 926-32211) 1:5000; anti-mouse IgG (LI-COR, 926-68070) 1:5000). The membrane was washed three times with 5 minutes each and lastly the LiCOR was read.

SMARCA2, sequence (P51531 whole entry): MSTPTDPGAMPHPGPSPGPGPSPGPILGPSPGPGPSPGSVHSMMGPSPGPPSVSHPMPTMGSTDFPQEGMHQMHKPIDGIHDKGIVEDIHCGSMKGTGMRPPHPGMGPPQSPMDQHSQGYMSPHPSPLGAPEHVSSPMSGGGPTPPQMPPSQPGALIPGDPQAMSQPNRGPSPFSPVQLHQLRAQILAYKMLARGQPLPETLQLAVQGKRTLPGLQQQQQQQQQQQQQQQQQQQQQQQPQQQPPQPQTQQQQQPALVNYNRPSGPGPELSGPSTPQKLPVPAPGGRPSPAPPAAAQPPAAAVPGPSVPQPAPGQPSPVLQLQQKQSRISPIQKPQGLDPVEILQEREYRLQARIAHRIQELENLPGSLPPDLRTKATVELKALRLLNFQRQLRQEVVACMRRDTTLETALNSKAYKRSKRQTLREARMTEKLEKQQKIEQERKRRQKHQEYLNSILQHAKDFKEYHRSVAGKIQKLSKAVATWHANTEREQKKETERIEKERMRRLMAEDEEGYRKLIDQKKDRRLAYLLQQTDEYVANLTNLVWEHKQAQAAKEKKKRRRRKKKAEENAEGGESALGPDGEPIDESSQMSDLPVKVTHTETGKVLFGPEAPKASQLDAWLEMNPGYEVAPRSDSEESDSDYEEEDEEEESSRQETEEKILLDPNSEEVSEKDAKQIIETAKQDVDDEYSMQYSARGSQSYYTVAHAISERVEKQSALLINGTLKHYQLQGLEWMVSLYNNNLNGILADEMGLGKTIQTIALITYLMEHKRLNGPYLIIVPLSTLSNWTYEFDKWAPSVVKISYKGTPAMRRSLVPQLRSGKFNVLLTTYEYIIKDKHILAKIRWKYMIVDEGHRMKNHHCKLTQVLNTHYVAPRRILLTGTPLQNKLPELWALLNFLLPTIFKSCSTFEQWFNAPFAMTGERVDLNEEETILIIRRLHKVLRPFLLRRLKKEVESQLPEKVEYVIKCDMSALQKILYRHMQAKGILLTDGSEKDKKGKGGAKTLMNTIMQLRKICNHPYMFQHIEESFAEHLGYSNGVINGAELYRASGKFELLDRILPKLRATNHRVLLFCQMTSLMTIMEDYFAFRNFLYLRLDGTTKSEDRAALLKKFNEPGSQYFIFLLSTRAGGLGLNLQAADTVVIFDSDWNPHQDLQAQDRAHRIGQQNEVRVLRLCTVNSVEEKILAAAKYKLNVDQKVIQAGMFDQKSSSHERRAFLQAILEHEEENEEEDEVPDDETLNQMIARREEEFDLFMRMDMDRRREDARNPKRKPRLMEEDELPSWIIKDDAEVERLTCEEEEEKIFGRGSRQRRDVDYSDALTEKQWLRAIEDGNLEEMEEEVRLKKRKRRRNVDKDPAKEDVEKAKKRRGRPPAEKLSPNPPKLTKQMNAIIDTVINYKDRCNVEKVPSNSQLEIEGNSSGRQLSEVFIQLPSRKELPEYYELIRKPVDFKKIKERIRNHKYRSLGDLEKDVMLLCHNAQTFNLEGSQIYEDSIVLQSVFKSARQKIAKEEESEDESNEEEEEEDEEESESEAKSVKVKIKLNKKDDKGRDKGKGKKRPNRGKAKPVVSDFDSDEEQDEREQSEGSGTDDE

For the compound `CN(CC#Cc1cnc(N2CCC(c3c[nH]c4nnc(-c5ccccc5O)cc34)CC2)nc1)CCCc1ccc2c(c1)n(C)c(=O)n2C1CCC(=O)NC1=O` (centres unmarked) [I-3], on SMARCA2, the Dmax – broadly, the greatest extent of degradation seen – was under 50% and the DC50 (in general, the concentration giving 50% degradation) is over 1 µM.

With `Cc1ncsc1-c1ccc(CNC(=O)[C@@H]2C[C@@H](O)CN2C(=O)[C@@H](NC(=O)[C@H]2CC[C@@H](c3cnc(N4CCC(c5c[nH]c6nnc(-c7ccccc7O)cc56)CC4)nc3)CC2)C(C)(C)C)cc1` [I-45, (2S,4R)-4-hydroxy-1-((S)-2-((1s,4R)-4-(2-(4-(3-(2-hydroxyphenyl)-7H-pyrrolo[2,3-c]pyridazin-5-yl)piperidin-1-yl)pyrimidin-5-yl)cyclohexanecarboxamido)-3,3-dimethylbutanoyl)-N-(4-(4-methylthiazol-5-yl)benzyl)pyrrolidine-2-carboxamide], at SMARCA2, the greatest degradation seen (Dmax) lay within 70 to 90% and the 50% degradation concentration (DC50) was 0.501 to 1 µM. Besides, on SMARCA4, the Dmax is over 90% and the DC50 is under 0.1 µM.

For `Cc1ncsc1-c1ccc(CNC(=O)[C@@H]2C[C@@H](O)CN2C(=O)[C@@H](NC(=O)CCCCCN(C)Cc2cnc(N3CCC(c4c[nH]c5nnc(-c6ccccc6O)cc45)CC3)nc2)C(C)(C)C)cc1` [I-52, (2S,4R)-4-hydroxy-1-((S)-2-(6-(((2-(4-(3-(2-hydroxyphenyl)-7H-pyrrolo[2,3-c]pyridazin-5-yl)piperidin-1-yl)pyrimidin-5-yl)methyl)(methyl)amino)hexanamido)-3,3-dimethylbutanoyl)-N-(4-(4-methylthiazol-5-yl)benzyl)pyrrolidine-2-carboxamide], at SMARCA2, the Dmax is under 50% and the DC50 was over 1 µM. Besides, on SMARCA4, the Dmax lay within 50 to 70% and the half-maximal degradation concentration (DC50) is over 1 µM.

With `Cc1ncsc1-c1ccc(CNC(=O)[C@@H]2C[C@@H](O)CN2C(=O)[C@@H](NC(=O)CCCN(C)Cc2cnc(N3CCC(c4c[nH]c5nnc(-c6ccccc6O)cc45)CC3)nc2)C(C)(C)C)cc1` [I-51], the maximal degradation (Dmax) on SMARCA2 and at SMARCA4 was under 50% throughout. In addition, the DC50 on SMARCA2 and at SMARCA4 was over 1 µM throughout.

On to `Cc1ncsc1-c1ccc(CNC(=O)[C@@H]2C[C@@H](O)CN2C(=O)[C@@H](NC(=O)C2(F)CC2)C(C)(C)C)c(OCCCCCCN2CCC(c3c[nH]c4nnc(-c5ccccc5O)cc34)CC2)c1` [I-48], for which the greatest degradation seen (Dmax) on SMARCA2 and on SMARCA4 was under 50% each time. The DC50 is over 1 µM on SMARCA2 and 0.501 to 1 µM at SMARCA4.

With `Cc1ncsc1-c1ccc(CNC(=O)[C@@H]2C[C@@H](O)CN2C(=O)[C@@H](NC(=O)C2(F)CC2)C(C)(C)C)c(OCCN2CCC(c3c[nH]c4nnc(-c5ccccc5O)cc34)CC2)c1` [I-47, (2S,4R)-1-((S)-2-(1-fluorocyclopropanecarboxamido)-3,3-dimethylbutanoyl)-4-hydroxy-N-(2-(2-(4-(3-(2-hydroxyphenyl)-7H-pyrrolo[2,3-c]pyridazin-5-yl)piperidin-1-yl)ethoxy)-4-(4-methylthiazol-5-yl)benzyl)pyrrolidine-2-carboxamide], on SMARCA2, the Dmax was under 50% and the half-maximal degradation concentration (DC50) was over 1 µM. At SMARCA4, the Dmax is 70 to 90% and the half-maximal degradation concentration (DC50) was over 1 µM.

As for `Cc1ncsc1-c1ccc(CNC(=O)[C@@H]2C[C@@H](O)CN2C(=O)[C@@H](NC(=O)C2(F)CC2)C(C)(C)C)c(OCCCCCCCCN2CCC(c3c[nH]c4nnc(-c5ccccc5O)cc34)CC2)c1` [I-49], on SMARCA2, the greatest degradation seen (Dmax) was under 50% and the DC50 is over 1 µM. Moreover, at SMARCA4, the Dmax was 70 to 90% and the DC50 is over 1 µM.

In the case of `Cc1ncsc1-c1ccc(CNC(=O)[C@@H]2C[C@@H](O)CN2C(=O)[C@@H](NC(=O)CN(C)Cc2cnc(N3CCC(c4c[nH]c5nnc(-c6ccccc6O)cc45)CC3)nc2)C(C)(C)C)cc1` [I-50], at SMARCA2, the Dmax was under 50% and the DC50 is over 1 µM. Besides, at SMARCA4, the Dmax was under 50% and the half-maximal degradation concentration (DC50) was over 1 µM.

Turning to `CN(CCCc1cnc(N2CCC(c3c[nH]c4nnc(-c5ccccc5O)cc34)CC2)nc1)CCCc1ccc2c(c1)n(C)c(=O)n2C1CCC(=O)NC1=O` (centres unmarked) [I-2], at SMARCA2, the Dmax is under 50% and the DC50 was over 1 µM.

For the origin of these results see patent US12521438B2, “SMARCA degraders and uses thereof” (Kymera Therapeutics, Inc., priority 2019, dated 2026).
